Experimental data reported in ChEMBL document CHEMBL1125504, “2-Substituted 1-azabicycloalkanes, a new class of non-opiate antinociceptive agents” (J Med Chem, 1992).
Active and inactive are the calls of the source. The calls are words filed in the database; no cut-off is given here.

Legend:
[1] = target: T1, Adrenergic receptor alpha-2 (Rattus norvegicus, UniProt P22086+P19328+P22909); assay: Inhibitory constant was measured on alpha-2 adrenergic receptor /uptake using [3H] clonidine as radioligand in rat brain cortex; format: tissue-based
T1 sequence (P22086 whole entry): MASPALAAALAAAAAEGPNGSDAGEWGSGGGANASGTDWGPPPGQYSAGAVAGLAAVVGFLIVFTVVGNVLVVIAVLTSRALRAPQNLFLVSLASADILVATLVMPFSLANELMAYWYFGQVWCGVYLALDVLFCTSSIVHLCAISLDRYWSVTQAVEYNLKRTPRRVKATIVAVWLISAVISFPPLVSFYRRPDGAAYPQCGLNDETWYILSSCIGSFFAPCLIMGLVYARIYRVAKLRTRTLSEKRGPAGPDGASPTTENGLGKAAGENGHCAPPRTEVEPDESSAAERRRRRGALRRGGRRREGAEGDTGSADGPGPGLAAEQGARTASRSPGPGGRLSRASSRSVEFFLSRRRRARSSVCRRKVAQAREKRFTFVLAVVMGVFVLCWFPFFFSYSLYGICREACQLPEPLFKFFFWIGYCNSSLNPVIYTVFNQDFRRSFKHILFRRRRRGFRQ
T1 sequence (P19328 whole entry): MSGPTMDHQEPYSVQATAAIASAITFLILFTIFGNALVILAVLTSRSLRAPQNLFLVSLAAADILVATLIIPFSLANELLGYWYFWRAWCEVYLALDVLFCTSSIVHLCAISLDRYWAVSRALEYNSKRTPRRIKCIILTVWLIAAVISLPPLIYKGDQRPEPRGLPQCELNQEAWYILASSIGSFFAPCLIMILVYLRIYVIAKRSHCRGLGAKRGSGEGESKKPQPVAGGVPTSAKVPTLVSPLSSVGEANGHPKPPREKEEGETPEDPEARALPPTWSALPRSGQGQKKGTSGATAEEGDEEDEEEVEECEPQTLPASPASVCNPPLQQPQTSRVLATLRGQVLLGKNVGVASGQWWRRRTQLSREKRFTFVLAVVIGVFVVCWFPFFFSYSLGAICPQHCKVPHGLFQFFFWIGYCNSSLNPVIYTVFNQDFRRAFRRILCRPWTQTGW
T1 sequence (P22909 whole entry): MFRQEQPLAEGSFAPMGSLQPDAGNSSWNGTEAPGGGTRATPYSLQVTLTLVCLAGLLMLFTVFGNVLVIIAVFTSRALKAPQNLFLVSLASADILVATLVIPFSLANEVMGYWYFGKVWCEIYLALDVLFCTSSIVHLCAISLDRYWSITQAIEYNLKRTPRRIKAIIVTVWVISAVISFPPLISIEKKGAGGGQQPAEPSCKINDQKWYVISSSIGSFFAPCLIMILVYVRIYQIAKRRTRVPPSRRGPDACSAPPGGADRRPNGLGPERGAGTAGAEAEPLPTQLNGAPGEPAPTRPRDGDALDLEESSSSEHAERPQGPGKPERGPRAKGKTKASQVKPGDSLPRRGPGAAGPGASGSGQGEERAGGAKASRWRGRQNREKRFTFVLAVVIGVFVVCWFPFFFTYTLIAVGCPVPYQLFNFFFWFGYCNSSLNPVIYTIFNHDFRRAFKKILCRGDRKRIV

Mus musculus [2] = species: Mus musculus; assay: Antinociceptive activity in mice, determined using abdominal constriction test.; format: functional; conditions: Abdomen
Mus musculus [3] = species: Mus musculus; assay: Antinociceptive activity using mouse tail flick test; Inactive; format: functional, organism-based
[4] = target: Serotonin 1 (5-HT1) receptor (Rattus norvegicus) (UniProt P28564+P30940+P19327+P28565); assay: Inhibition constant (1 uM) was measured on 5-hydroxytryptamine 1 receptor/uptake using [3H]- serotonin as radioligand in rat brain cortex.; format: tissue-based
[5] = target: Serotonin 2 (5-HT2) receptor (Rattus norvegicus) (UniProt P30994+P08909+P14842); assay: Inhibitory constant (1 uM) was measured on 5-hydroxytryptamine 2 receptor/uptake using [3H]- ketanserin as radioligand in rat brain cortex.; format: tissue-based
[6] = target: Adrenergic receptor alpha-1 (Rattus norvegicus) (UniProt P15823+P23944+P43140); assay: Inhibitory constant (1 uM) was measured on alpha-1 adrenergic receptor/uptake using [3H]- WB-4101 as radioligand in rat brain cortex.; format: tissue-based
[7] = target: D(2) dopamine receptor (Rattus norvegicus) (UniProt P61169); assay: Inhibitory constant (1 uM) was measured on dopamine receptor D2 using [3H]- spiperone as radioligand in rat brain striatum.; format: tissue-based
[8] = target: GABA-A receptor; anion channel (Rattus norvegicus) (UniProt O09028+P15431+P18506+P18508+P19969+P20236+P23574+P23576+P28471+P28473+P30191+P62813+P63079+P63138+Q91ZM7+Q9ES14); assay: Inhibition of [3H]GABA binding to gamma-aminobutyric-acid A (GABA-A) receptor of rat brain cerebellum at 10 uM; format: tissue-based
[9] = target: Opioid receptor (Rattus norvegicus) (UniProt P33533+P34975+P33535); assay: Inhibitory constant (10 uM) was measured on opioid receptor/uptake using [3H]- naloxone as radioligand in rat whole brain.
[10] = target: Cannabinoid receptor (Rattus norvegicus) (UniProt Q9QZN9+P20272); assay: Inhibitory constant (10 uM) was measured on cannabinoid receptor/uptake using [3H]CP-55940 as radioligand in rat brain cortex.; format: tissue-based
[11] = target: Adrenergic receptor beta (Rattus norvegicus) (UniProt P18090+P10608+P26255); assay: Inhibitory constant (1 uM) was measured on beta adrenergic receptor/uptake using [3H]- dihydroalprenolol as radioligand in rat brain cortex.; format: tissue-based
Mus musculus [12] = species: Mus musculus; assay: Antinociceptive activity using mouse abdominal constriction test; inactive; format: functional, organism-based; conditions: Abdomen
Mus musculus [13] = assay: Antinociceptive activity (100 mg/Kg) was determined using mouse tail flick test.; format: functional
[14] = target: T1, Adrenergic receptor alpha-2; assay: Inhibitory constant was measured on alpha-2 adrenergic receptor /uptake using [3H]- clonidine as radioligand in rat brain cortex.; format: tissue-based
Mus musculus [15] = assay: Antinociceptive activity in mice following i.p. treatment, determined using tail flick test.; format: functional; conditions: ip
Mus musculus [16] = assay: Antinociceptive activity (10 mg/Kg) was determined using mouse abdominal constriction test.; format: functional, Abdomen
Mus musculus [17] = assay: Antinociceptive activity (50 mg/Kg) was determined using mouse tail flick test.; format: functional

Chain of Cannabinoid receptor (Rattus norvegicus) (P20272 whole entry, looked up): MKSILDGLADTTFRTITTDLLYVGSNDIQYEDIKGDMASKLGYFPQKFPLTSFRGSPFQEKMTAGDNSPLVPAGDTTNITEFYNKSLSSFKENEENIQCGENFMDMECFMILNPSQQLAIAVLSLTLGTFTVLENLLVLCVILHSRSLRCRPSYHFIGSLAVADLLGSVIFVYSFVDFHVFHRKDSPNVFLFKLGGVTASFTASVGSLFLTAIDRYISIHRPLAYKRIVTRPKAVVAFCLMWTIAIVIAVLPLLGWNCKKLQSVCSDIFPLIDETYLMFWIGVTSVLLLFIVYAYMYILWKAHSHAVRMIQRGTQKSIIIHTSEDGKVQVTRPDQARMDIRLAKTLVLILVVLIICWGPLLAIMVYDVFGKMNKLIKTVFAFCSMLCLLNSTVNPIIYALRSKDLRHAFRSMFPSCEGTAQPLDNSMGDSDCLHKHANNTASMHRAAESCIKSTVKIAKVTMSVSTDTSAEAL
Chain of Cannabinoid receptor (Rattus norvegicus) (Q9QZN9 whole entry, looked up): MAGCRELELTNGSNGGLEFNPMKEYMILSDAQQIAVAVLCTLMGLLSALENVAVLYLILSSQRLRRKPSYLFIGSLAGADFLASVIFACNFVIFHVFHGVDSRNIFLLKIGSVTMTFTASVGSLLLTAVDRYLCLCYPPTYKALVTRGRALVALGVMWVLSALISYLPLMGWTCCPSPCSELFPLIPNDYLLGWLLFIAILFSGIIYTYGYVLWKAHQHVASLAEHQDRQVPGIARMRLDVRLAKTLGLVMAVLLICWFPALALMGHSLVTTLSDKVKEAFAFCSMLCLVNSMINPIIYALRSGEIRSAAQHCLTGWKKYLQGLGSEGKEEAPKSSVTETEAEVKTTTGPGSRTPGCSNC
Chain of D(2) dopamine receptor (Rattus norvegicus) (P61169 whole entry): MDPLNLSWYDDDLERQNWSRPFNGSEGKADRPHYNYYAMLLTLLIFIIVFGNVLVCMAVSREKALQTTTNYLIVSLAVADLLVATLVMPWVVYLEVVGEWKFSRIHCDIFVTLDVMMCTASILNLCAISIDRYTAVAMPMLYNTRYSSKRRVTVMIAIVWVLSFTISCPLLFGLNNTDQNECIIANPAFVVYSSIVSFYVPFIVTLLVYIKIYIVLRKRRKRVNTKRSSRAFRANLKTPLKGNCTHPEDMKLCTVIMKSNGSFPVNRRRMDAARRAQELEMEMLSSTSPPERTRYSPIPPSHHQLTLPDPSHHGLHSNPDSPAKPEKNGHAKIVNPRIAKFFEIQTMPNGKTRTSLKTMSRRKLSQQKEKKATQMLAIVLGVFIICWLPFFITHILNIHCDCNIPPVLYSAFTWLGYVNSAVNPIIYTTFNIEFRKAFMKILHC
Chain of Opioid receptor (Rattus norvegicus) (P33533 whole entry, looked up): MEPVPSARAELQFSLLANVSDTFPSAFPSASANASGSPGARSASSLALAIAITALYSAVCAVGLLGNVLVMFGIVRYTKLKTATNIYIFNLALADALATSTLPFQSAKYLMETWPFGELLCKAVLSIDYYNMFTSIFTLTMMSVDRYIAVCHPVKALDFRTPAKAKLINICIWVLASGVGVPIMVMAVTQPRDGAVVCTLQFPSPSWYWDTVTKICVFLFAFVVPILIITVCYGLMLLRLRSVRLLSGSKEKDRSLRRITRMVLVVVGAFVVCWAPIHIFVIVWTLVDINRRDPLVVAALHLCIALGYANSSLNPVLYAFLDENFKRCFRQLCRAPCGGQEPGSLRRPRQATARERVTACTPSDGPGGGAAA
Chain of Opioid receptor (Rattus norvegicus) (P33535 whole entry, looked up): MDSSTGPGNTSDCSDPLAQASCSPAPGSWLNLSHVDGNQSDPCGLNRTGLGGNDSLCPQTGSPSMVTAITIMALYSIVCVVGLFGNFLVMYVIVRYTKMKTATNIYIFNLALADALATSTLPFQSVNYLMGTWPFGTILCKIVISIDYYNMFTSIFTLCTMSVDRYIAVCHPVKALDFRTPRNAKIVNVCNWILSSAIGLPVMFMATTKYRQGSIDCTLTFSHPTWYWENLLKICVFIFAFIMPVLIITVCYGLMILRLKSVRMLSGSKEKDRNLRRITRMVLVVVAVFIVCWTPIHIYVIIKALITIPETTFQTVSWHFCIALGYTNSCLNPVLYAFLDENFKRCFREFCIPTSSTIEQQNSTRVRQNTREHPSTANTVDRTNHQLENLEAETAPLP
Chain of Opioid receptor (Rattus norvegicus) (P34975 whole entry, looked up): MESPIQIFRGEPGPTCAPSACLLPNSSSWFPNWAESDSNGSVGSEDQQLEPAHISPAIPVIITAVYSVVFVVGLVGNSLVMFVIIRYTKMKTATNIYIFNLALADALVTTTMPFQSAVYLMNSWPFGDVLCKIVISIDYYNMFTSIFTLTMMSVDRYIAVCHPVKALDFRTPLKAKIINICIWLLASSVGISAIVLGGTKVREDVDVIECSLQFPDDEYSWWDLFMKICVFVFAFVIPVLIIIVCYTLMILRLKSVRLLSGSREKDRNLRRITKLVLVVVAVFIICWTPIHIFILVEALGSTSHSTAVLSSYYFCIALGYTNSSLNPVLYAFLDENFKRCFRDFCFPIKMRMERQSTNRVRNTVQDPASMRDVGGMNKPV
Chain of Serotonin 2 (5-HT2) receptor (Rattus norvegicus) (P08909 whole entry, looked up): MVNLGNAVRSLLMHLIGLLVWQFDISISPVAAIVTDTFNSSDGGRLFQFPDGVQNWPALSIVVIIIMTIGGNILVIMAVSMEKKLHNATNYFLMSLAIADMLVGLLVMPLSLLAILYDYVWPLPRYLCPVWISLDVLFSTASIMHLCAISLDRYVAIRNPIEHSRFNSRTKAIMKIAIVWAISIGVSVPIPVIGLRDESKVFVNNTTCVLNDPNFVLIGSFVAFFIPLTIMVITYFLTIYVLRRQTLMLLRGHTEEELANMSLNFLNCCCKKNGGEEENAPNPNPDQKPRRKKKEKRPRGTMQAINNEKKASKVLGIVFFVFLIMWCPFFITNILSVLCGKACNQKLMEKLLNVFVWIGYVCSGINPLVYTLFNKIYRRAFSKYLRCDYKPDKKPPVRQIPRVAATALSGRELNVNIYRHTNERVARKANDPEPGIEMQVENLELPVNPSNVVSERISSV
Chain of Serotonin 2 (5-HT2) receptor (Rattus norvegicus) (P14842 whole entry, looked up): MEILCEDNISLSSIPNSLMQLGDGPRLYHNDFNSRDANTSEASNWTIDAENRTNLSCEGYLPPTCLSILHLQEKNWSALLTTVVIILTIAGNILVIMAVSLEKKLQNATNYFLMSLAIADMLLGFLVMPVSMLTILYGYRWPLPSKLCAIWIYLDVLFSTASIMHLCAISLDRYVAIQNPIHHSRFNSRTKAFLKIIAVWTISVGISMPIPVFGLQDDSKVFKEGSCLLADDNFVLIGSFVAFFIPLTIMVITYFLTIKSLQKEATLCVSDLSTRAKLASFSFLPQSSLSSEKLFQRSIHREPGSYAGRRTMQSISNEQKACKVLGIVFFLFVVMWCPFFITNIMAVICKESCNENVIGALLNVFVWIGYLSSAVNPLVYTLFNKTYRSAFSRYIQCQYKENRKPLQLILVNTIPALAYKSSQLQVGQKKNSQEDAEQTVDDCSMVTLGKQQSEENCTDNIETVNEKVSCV
Chain of Serotonin 2 (5-HT2) receptor (Rattus norvegicus) (P30994 whole entry, looked up): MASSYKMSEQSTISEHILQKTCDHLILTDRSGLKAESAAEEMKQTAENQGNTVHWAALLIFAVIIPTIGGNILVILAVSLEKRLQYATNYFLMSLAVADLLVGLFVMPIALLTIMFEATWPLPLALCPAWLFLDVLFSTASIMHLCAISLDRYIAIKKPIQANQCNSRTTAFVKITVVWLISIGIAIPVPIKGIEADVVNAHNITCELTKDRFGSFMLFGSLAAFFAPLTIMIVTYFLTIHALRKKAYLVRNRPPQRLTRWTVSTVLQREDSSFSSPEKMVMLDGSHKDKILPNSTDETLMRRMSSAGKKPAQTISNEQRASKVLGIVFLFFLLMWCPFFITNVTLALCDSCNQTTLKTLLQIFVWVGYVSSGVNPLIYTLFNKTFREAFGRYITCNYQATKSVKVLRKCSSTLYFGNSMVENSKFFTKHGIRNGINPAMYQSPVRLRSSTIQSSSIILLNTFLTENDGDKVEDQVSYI

How did the Ki [1] turn out when Brc1ccccc1[C@H]1CC[C@H]2CCCCN21.Cl (racemic) was run?
The Ki was 1120 nM.

Which ED50 (Mus musculus [2]) does the source give for Brc1ccc([C@H]2CC[C@H]3CCCCN32)cc1.Cl here?
The ED50 was 18.8 mg/kg.

What about the ED50 (Mus musculus [3]) of the same compound?
The ED50 was “inactive”.

Brc1ccccc1[C@H]1CC[C@H]2CCCCN21 (racemic) was tested. Which Response [4] did it give?
Its Response is 7%.

And the Response [5]?
Its Response is -18%.

And the Response [6]?
Its Response is 6%.

And the Response [7]?
The Response was 0%.

And the Response [8]?
Its Response is 2%.

What about the Response [9] of the same compound?
The Response was 17%.

And the Response [10]?
The Response was 1%.

What about the Response [11] of the same compound?
The Response was -3%.

Which ED50 (Mus musculus [12]) does the source give for Brc1cccc([C@H]2CC[C@H]3CCCCN32)c1.Cl here?
The ED50 was “inactive”.

What about the Response (Mus musculus [13]) of the same compound?
The Response was 60%.

What does the source list for Cl.c1ccc(COc2ccc([C@H]3CC[C@H]4CCCCN43)cc2)cc1?
ED50 (Mus musculus [2]): 16.8 mg/kg; Response (Mus musculus [13]): 50%

Brc1ccccc1[C@H]1CC[C@H]2CCCCN21.Cl (stereo in doubt; (+)2a) was tested. Which Ki [14] did it give?
Its Ki is 1200 nM.

For CC(C)Cc1ccc(C(C)C(=O)O)cc1 (stereo unspecified) [IBUPROFEN], which ED50 (Mus musculus [2]) is on record?
Its ED50 is 15.7 mg/kg.

And the ED50 (Mus musculus [3])?
The ED50 was “inactive”.

With COc1ccc2c3c1O[C@H]1[C@@H](O)C=C[C@H]4[C@@H](C2)N(C)CC[C@@]341.COc1ccc2c3c1O[C@H]1[C@@H](O)C=C[C@H]4[C@@H](C2)N(C)CC[C@@]341.O.O=P(O)(O)O.O=P(O)(O)O [CODEINE PHOSPHATE] as the compound, how does the ED50 (Mus musculus [2]) read?
Its ED50 is 11.1 mg/kg.

And the ED50 (Mus musculus [15])?
The ED50 was 30 mg/kg.

With Brc1ccccc1[C@H]1CC[C@H]2CCCCN21.Cl (stereo in doubt; (-)2a) as the compound, how does the Ki [14] read?
Its Ki is 2840 nM.

Brc1ccccc1[C@H]1CC[C@H]2CCCCN21 (stereo in doubt; (+)2a) was tested. Which Response [8] did it give?
Its Response is 4%.

What about the Response [10] of the same compound?
The Response was 6%.

And the Response [11]?
Its Response is -1%.

With c1ccc(C2CCC3CCCN32)cc1 (stereo unspecified) as the compound, how does the ED50 (Mus musculus [2]) read?
Its ED50 is 5.7 mg/kg.

And the ED50 (Mus musculus [15])?
The ED50 was greater than 25 mg/kg.

Which results are given for Brc1ccccc1[C@H]1CC[C@H]2CCCCN21 (stereo in doubt; (-)2a)?
Response [8]: -2%; Response [10]: 2%; Response [11]: -5%

For C1CCC([C@H]2CC[C@H]3CCCCN32)CC1.Cl, which Response (Mus musculus [16]) is on record?
Its Response is 50%.

And the Response (Mus musculus [17])?
Its Response is 60%.
